Here are results for one compound from ChEMBL document CHEMBL2331281, “Isolation of ciliatamide D from a marine sponge Stelletta sp. and a reinvestigation of the configuration of ciliatamide A” (J Nat Prod, 2013).

The target in assay [1] is Cathepsin B (Homo sapiens) (UniProt P07858). The experiment in a line: Inhibition of cathepsin B (unknown origin) using Z-Arg-Arg-AMC as substrate at 50 ug/ml after 30 mins by fluorescence assay.
For the next assay, the system named is HeLa. The experiment in a line: Cytotoxicity against human HeLa cells at 50 ug/ml after 72 hrs by MTT assay. The class given is functional, cell-based.

The source made the active and inactive calls. No cut-off for these calls is given here.

On to `C=CCCCCCCCC(=O)N(C)[C@@H](CC[S+](C)[O-])C(=O)N[C@H]1CCCCNC1=O` (mixture of isomers), for which, in assay [1], the inhibition entry is “inactive”. Also, the outcome in the assay on HeLa was inactive.
